melting point [°C]	Compound
248 to 250	Nc1c(-c2cccc(Oc3ccccc3)c2)cnc2ncnn12
173	FC(F)c1cc(-c2ccc(C(F)(F)F)cc2)nc2cncn12
> 300	N#Cc1c(Cl)[nH]c(Cl)c1Cl
141 to 148	C[C@H]1Oc2ccc(F)cc2NC(=O)[C@H]1NC(=O)OC(C)(C)C
101 to 103	CCc1c(Cc2cc(C)cc(C)c2)n(COCCCCO)c(=O)[nH]c1=O
127	O=C(Cn1cc(Cl)cn1)c1ccc(Br)s1
289 to 290	OC(CNc1ccnc2ccccc12)c1ccccc1 (stereo not given)
116 to 117	COC(=O)c1cccc(S(=O)(=O)C2CCN(CCc3ccc(F)cc3F)CC2)c1
202 to 204	c1ccc(-c2cccc3c2CCN(Cc2c[nH]c4ncccc24)C3)cc1
123 to 124	C[Si](C)(C)c1ccc(N)cc1
68	COC(=O)Cc1ccc(OCCNC(=O)C2Cc3ccccc3N2S(=O)(=O)c2ccc(-c3ccc(F)cc3Cl)cc2)cc1 (stereo not given)
145 to 146	Cc1oc(-c2ccccc2)nc1COc1ccc2oc(/C=C/CO)cc2c1
149 to 151	C=CC12CCc3cc(O)ccc3C1CCC1(C)C(O)CCC12 (stereo not given)
85 to 86.5	CC(=O)c1cc(CNS(C)(=O)=O)ccc1O
240 to 242	COc1cc2c(cc1OC(=O)C=Cc1ccccc1)C1Cc3c(Cl)cc(OC)c(OC(=O)C=Cc4ccccc4)c3CN1CC2 (stereo not given)
198 to 200	CS(=O)c1cc(=O)c2ccc(N3CCOCC3)cc2s1 (stereo not given)
89 to 93	CC(Cc1c[nH]c2ccccc12)(NC(=O)OCC1c2ccccc2-c2ccccc21)C(=O)NC(CO)Cc1ccccc1 (stereo not given)
148 to 149	N#CSCC(=O)c1ccc(Br)cc1
154 to 157	COc1ccc(Sc2c([N+](=O)[O-])ccc(Cl)c2C(=O)O)cc1
153 to 154	O=C1C(CCO)Oc2ccccc2N1Cc1ccncc1 (stereo not given)
120 to 121	CCOC(=O)C1C(c2ccc(I)cc2)CC(=O)N1C (stereo not given)
96 to 102	C[C@@H](n1cnc2cc(OCC(F)F)ccc2c1=O)[C@](O)(Cn1cncn1)c1ccc(F)cc1F
145	COC(=O)/C=C/n1cnc2ccc(C(C)C)cc2c1=O
158 to 160	COC(=O)c1ccc(NS(=O)(=O)c2cc(OCC(F)(F)F)cc(OCC(F)(F)F)c2)cn1
168 to 170	CCCc1nc(C(C)(C)O)c(C(=O)OC2OC(=O)c3ccccc32)n1Cc1ccc(-c2ccccc2-c2nnn[nH]2)cc1 (stereo not given)

melting point [°C]	Compound
156 to 158	C[C@@H](NC(=O)OCc1ccccc1)[C@H](O)C(=O)O
100 to 101	COc1cccc(CC(=O)O)c1OCCCc1ccc(OC(C)C)cc1Oc1ncc(C(F)(F)F)cc1Cl
325	O=C(Nc1ccc2ccc(Cl)nc2n1)c1cscn1
245 to 246	O=C(O)c1ccc(-c2nc(-c3ccc(OC(F)(F)F)cc3)cs2)cc1
129 to 130	CCCCCCCCCCCCCCCCCCOc1cc(SC)cc(N(CC(=O)O)CC(=O)O)c1
239 to 240	CNCc1cccc(C2CCN(c3cc4c(cc3F)c(=O)c(C(=O)O)cn4C3CC3)C2)c1 (stereo not given)
131 to 144	Cc1cc(F)ccc1-c1nc(NCCNC(=O)Nc2cccc(F)c2)nc2c1ccc(=O)n2-c1c(F)cccc1F
176 to 178	CCCCCCCNC(=O)Nc1ccc(-n2cccn2)cc1C(=O)NCC1CCN(C(c2ccccc2)c2ccccc2)CC1
218 to 220	CN(C)Cc1cccc(-c2cc3c(Nc4ccc(F)c(Cl)c4)ncnc3[nH]2)c1
91	CC(C)(C)OC(=O)N1CC2CC1C(=O)S2 (stereo not given)
102 to 104	N#Cc1cccc(N2CCc3cc(OCc4ccccc4)ccc32)c1
126 to 127	COc1ccc(C2=NN(c3ccc(CCBr)cc3)C(=O)[C@H]3CC=CC[C@@H]23)cc1OC (relative stereo)
143 to 144	c1ccc(-c2cn3ccsc3n2)cc1
118 to 119	CCCCc1cc2cc(C(=O)NOCc3ccccc3)ccn2c1C(=O)c1ccc(OCCCN(CCCC)CCCC)cc1
280 to 283	O=C(O)c1c[n+]([O-])cc2ccccc12
169 to 172	CCCCc1nn(-c2cc(NC(=O)CC)ccc2Cl)c(=O)n1Cc1ccc(-c2ccccc2S(=O)(=O)NC(=O)c2cc(Cl)ccc2Cl)cc1F
293 to 294	COc1ccc(C2C3=C(COC3=O)Nc3ccc4cc(C)[nH]c4c32)cc1O (stereo not given)
54 to 55	CCCCC[C@H]1CC[C@H](/C=C/COc2ccc(C=O)cc2)CC1
133 to 137	OCCC(=C(c1ccccc1)c1ccc(OCCBr)cc1)c1ccccc1
202 to 204	Nc1nc(N)nc(C2CCN(c3ccccc3)CC2)n1
252 to 254	CNCC1CN(c2c(F)cc3c(=O)c(C(=O)O)cn(C4CC4)c3c2F)CC1C (stereo not given)
111 to 112	CCN(CC)C(=O)c1nc2cnn(CC)c2nc1-c1ccccc1
156 to 159	COc1ccc2nc(Cl)c(Cl)nc2c1
130 to 131	COCCN1CCC(O)(c2cc(F)cc(F)c2)C1 (single isomer, unassigned; (-))
220 to 222	CN1Cc2ccc(NC(=O)N[C@@H]3c4cc(C#N)ccc4OC(C)(C)[C@H]3O)cc2C1

melting point [°C]	Compound
165 to 167	Cc1ccccc1C1C(=O)CC2CCCCC2C1=O (stereo not given)
201 to 203	O=C(O)CCCCCNC(=O)c1ccc(NC(=O)c2ccccc2O)cc1
208 to 210	O=C(Cc1ccc(SC(F)(F)F)cc1)NCc1ccc2c(c1)CN(C1CCC(=O)NC1=O)C2=O (stereo not given)
123 to 124	CC(C)[C@H](NC(=O)OC(C)(C)C)C(=O)C1CC(=O)NC1=O (stereo not given in full)
116 to 118	O=C1CCC2(CC2)C(=O)C1
134 to 135	CCCc1c(OCc2cccn3c(=O)c(CC(=O)OCC)cnc23)ccc(C(C)=O)c1O
121	CN1CCC(C2c3sccc3CCn3ccnc32)CC1 (stereo not given)
161 to 163	CN(C)c1ccc(C=C2Cc3cc4c(cc3C2=O)CCCC4)cc1
157 to 158	O=C1c2ccccc2C(=O)N1CCOc1ccncc1
167 to 168	O=C(O)C1CCN(Cc2ccccc2)CC1
128 to 130	CCOC(=O)CN1C(=O)c2cccc3c(Br)ccc1c23
55 to 57	CCc1cccc(Nc2nc(NCc3ccc(C)o3)nc(OCC(F)(F)F)n2)c1
102	Cc1c(NC(=O)c2ccc(CC(=O)C3CCCO3)cc2)ccc2cc(CN3CCCC3)cnc12 (stereo not given)
213 to 214	CCCc1c(O)ccc2c(OCc3ccccc3)cc(=O)oc12
116 to 118	COC(=O)OC1C(OCc2ccccc2)C(COCc2ccccc2)OC(C)(OCc2ccccc2)C1NC(C)=O (stereo not given)
160	CSc1ccc(C)cc1C(N)=S
114 to 118	CCCN1CCC(C(=O)Nc2ccc(CN(C)C3CCOCC3)cc2)=Cc2cc(-c3ccc(N4CCOCC4)cc3)ccc21
128 to 132	C=C(C)CSCC(C)C1CC=C2C3=C(CCC21C)C1(C)CCC(O)C(C)(C)C1CC3 (stereo not given)
72 to 73	O=Cc1cc([N+](=O)[O-])ccc1OCCCc1ccccc1
230 to 234	c1cc(-n2ccnc2)cc(-n2cnc3cc(-c4ccon4)ccc32)c1
113	CCN(CC)C(=O)c1cc2ccccc2c(-c2ccc(C)cc2)n1
89 to 90	CC(C)N(C(=O)Cl)c1ccccc1
118 to 120	COC(=O)c1cc(C(C)=O)c(C)nc1C1=NC(C)(C(C)C)C(=O)N1 (stereo not given)
178 to 180	O=C1c2ccccc2C(=O)N1OS(=O)(=O)c1ccc(Cl)cc1
73	CC(O)C(C)Sc1cc(C(C)(C)C)c(O)c(C(C)(C)C)c1 (stereo not given)

melting point [°C]	Compound
132 to 134	O=C(O)Cc1ccc2c(c1)C(O)c1ccccc1CO2 (stereo not given)
81	COC(=O)C(Oc1nc(OC)cc(OC)n1)C(OC)(c1ccccc1)c1ccccc1 (stereo not given)
100 to 101	Cc1cc2c(c(C)c1S(=O)(=O)C[N+](=O)[O-])CCCC(C)(C)O2
112	CCC(CC)C1CC(=O)C(C(=O)NS(=O)(=O)c2ccc(C)cc2)C(=O)C1 (stereo not given)
80 to 81	Cc1ccc(-c2ccccc2C#N)nc1
183 to 185	O=C(NC(CCCl)c1ccccc1Br)c1c(F)cccc1F (stereo not given)
124 to 126	CCOC(=O)c1cn(C(=O)c2ccccc2)c2sc(-c3ccc(OC)cc3)c(CBr)c2c1=O
97 to 98	COC(=O)CCC(=O)c1cc2c(s1)CCc1ccccc1C2=O
71	CCCCS(=O)(=O)ON=C(C#N)c1ccc(OC)cc1
88 to 91	CCCCCCOc1ccc2cc(C(C)C(=O)O)ccc2c1 (stereo not given)
175 to 176	COC(=O)CCC/C(C)=C/c1cccc2c1NCCNC2=O
89 to 91	Nc1onc(C(F)(F)F)c1-c1ccccc1
220 to 222	Cc1cc(C)cc(CC(C)(C)NCC(O)c2cc(OCc3ccccc3)cc3c2OCC(=O)N3)c1 (stereo not given)
218 to 220	CC(C)N1CCN(c2ccc(C(=O)NC3(C(=O)NCC#N)CCCCC3)cc2)CC1
104 to 106	CC(C)(C)OC(=O)N1CCC2(Cc3cc4ccccc4n3C2)C1 (stereo not given)
127 to 128	CCCc1nc2c(N)nc3cccnc3c2n1CCOCCON=C(C)C
120 to 122	O=S(=O)(CCN1CCOCC1)OCCOc1ccn(-c2ccc(Cl)c(Cl)c2)n1
185	O=C(O)c1ccc(Oc2ccc(Oc3ccccc3)cc2)cc1
95 to 100	Cc1ccc(CC(=O)c2sccc2S(=O)(=O)Nc2onc(C)c2C)cc1
86 to 88	c1ccc(CN2CCCCC2)c(CN2CCCCC2)c1
264 to 266	O=C(Nc1nnn[nH]1)c1ccccc1O
196 to 197	COc1ccc(CN2c3ccc(Cl)cc3C=C(C(=O)O)C2C(F)(F)F)cc1 (stereo not given)

Compound	melting point [°C]
Cc1cc2c(cc1C)[C@@H](O)[C@H](CN1CCC3(CC1)C(=O)NCN3c1ccccc1)CC2 (relative stereo)	232 to 233
NCC(C(=O)O)C1CCCCC1 (stereo not given)	238 to 240
COC(=O)C12COc3ccccc3C1NN(C(=O)Nc1ccc(C(F)(F)F)cc1)C2 (stereo not given)	211 to 212

— a melting point compilation (Tetko et al.; mined from patent text by program, amines drawn as free bases though some values may be those of a salt)
